# Tests used:
# [1] = system: Rattus norvegicus; test: Distribution of radio activity in tissues of unfasted male rats was measured at 120 min of time in heart after intravenous administration; type: ADME, organism-based; details: in vivo, 2 h
# [2] = system: Rattus norvegicus; test: Distribution of radio activity in tissues of unfasted male rats was measured as regional uptake at 2 min of time in striatum after intravenous administration; type: ADME, organism-based; details: in vivo
# [3] = system: Rattus norvegicus; test: Distribution of radio activity in tissues of unfasted male rats was measured as regional uptake at 2 min of time in hippocampus after intravenous administration; type: ADME, organism-based; details: in vivo
# [4] = system: Rattus norvegicus; test: Distribution of radio activity in tissues of unfasted male rats was measured as regional uptake at 60 min of time in ST/CB after intravenous administration; type: ADME, organism-based; details: in vivo, 1 h
# [5] = system: Rattus norvegicus; test: Distribution of radio activity in tissues of unfasted male rats was measured at 60 min of time in skin after intravenous administration; type: ADME, organism-based; details: in vivo, 1 h
# [6] = system: Rattus norvegicus; test: Distribution of radio activity in tissues of unfasted male rats was measured at 2 min of time in liver after intravenous administration; type: ADME, organism-based; details: in vivo
# [7] = system: Rattus norvegicus; test: Distribution of radio activity in tissues of unfasted male rats was measured as at 2 min of time in lung after intravenous administration; type: ADME, organism-based; details: in vivo
# [8] = system: Rattus norvegicus; test: Distribution of radio activity in tissues of unfasted male rats was measured at 60 min of time in brain after intravenous administration; type: ADME, organism-based; details: in vivo, 1 h
# [9] = system: Rattus norvegicus; test: Distribution of radio activity in tissues of unfasted male rats was measured at 120 min of time in kidney after intravenous administration; type: ADME, organism-based; details: in vivo, 2 h
# [10] = molecular target: Sodium-dependent dopamine transporter (Rattus norvegicus, UniProt P23977); test: Inhibitory constant towards reuptake of [125I]-13 from dopamine transporter in rat striatal membranes; type: cell membranes, Membrane
# [11] = system: Rattus norvegicus; test: Distribution of radio activity in tissues of unfasted male rats was measured at 120 min of time in brain after intravenous administration; type: ADME, organism-based; details: in vivo, 2 h
# [12] = system: Rattus norvegicus; test: Distribution of radio activity in tissues of unfasted male rats was measured at 60 min of time in spleen after intravenous administration; type: ADME, organism-based; details: in vivo, 1 h
# [13] = system: Rattus norvegicus; test: Distribution of radio activity in tissues of unfasted male rats was measured at 60 min of time in thyroid after intravenous administration; type: ADME, organism-based, Thyroid gland; details: in vivo, 1 h
# [14] = system: Rattus norvegicus; test: Distribution of radio activity in tissues of unfasted male rats was measured at 60 min of time in blood after intravenous administration; type: ADME, organism-based; details: in vivo, 1 h
# [15] = system: Rattus norvegicus; test: Distribution of radio activity in tissues of unfasted male rats was measured at 2 min of time in muscle after intravenous administration; type: ADME, organism-based, Muscle tissue; details: in vivo
# [16] = system: Rattus norvegicus; test: Distribution of radio activity in tissues of unfasted male rats was measured at 30 min of time in liver after intravenous administration; type: ADME, organism-based; details: in vivo, 0.5 h
# [17] = system: Rattus norvegicus; test: Distribution of radio activity in tissues of unfasted male rats was measured as regional uptake at 60 min of time in cerebellum after intravenous administration; type: ADME, organism-based; details: in vivo, 1 h
# [18] = system: Rattus norvegicus; test: Distribution of radio activity in tissues of unfasted male rats was measured at 2 min of time in kidney after intravenous administration; type: ADME, organism-based; details: in vivo
# [19] = system: Rattus norvegicus; test: Distribution of radio activity in tissues of unfasted male rats was measured at 60 min of time in liver after intravenous administration; type: ADME, organism-based; details: in vivo, 1 h
# [20] = system: Rattus norvegicus; test: Distribution of radio activity in tissues of unfasted male rats was measured as regional uptake at 120 min of time in cortex after intravenous administration; type: ADME, organism-based; details: in vivo, 2 h
# [21] = system: Rattus norvegicus; test: Distribution of radio activity in tissues of unfasted male rats was measured as regional uptake at 2 min of time in cortex after intravenous administration; type: ADME, organism-based; details: in vivo
# [22] = system: Rattus norvegicus; test: Distribution of radio activity in tissues of unfasted male rats was measured as regional uptake at 120 min of time in hippocampus after intravenous administration; type: ADME, organism-based; details: in vivo, 2 h
# [23] = system: Rattus norvegicus; test: Distribution of radio activity in tissues of unfasted male rats was measured as regional uptake at 60 min of time in cortex after intravenous administration; type: ADME, organism-based; details: in vivo, 1 h
# [24] = system: Rattus norvegicus; test: Distribution of radio activity in tissues of unfasted male rats was measured at 30 min of time in kidney after intravenous administration; type: ADME, organism-based; details: in vivo, 0.5 h
# [25] = system: Rattus norvegicus; test: Distribution of radio activity in tissues of unfasted male rats was measured as regional uptake at 2 min of time in ST/CB after intravenous administration; type: ADME, organism-based; details: in vivo
# [26] = system: Rattus norvegicus; test: Distribution of radio activity in tissues of unfasted male rats was measured at 120 min of time in lung after intravenous administration; type: ADME, organism-based; details: in vivo, 2 h
# [27] = system: Rattus norvegicus; test: Distribution of radio activity in tissues of unfasted male rats was measured at 30 min of time in skin after intravenous administration; type: ADME, organism-based; details: in vivo, 0.5 h
# [28] = system: Rattus norvegicus; test: Distribution of radio activity in tissues of unfasted male rats was measured as regional uptake at 60 min of time in hippocampus after intravenous administration; type: ADME, organism-based; details: in vivo, 1 h
# [29] = system: Rattus norvegicus; test: Distribution of radio activity in tissues of unfasted male rats was measured at 30 min of time in brain after intravenous administration; type: ADME, organism-based; details: in vivo, 0.5 h
# [30] = system: Rattus norvegicus; test: Distribution of radio activity in tissues of unfasted male rats was measured at 30 min of time in thyroid after intravenous administration; type: ADME, organism-based, Thyroid gland; details: in vivo, 0.5 h
# [31] = system: Rattus norvegicus; test: Distribution of radio activity in tissues of unfasted male rats was measured as regional uptake at 120 min of time in cerebellum after intravenous administration; type: ADME, organism-based; details: in vivo, 2 h
# Sequence of Sodium-dependent dopamine transporter (P23977 whole entry): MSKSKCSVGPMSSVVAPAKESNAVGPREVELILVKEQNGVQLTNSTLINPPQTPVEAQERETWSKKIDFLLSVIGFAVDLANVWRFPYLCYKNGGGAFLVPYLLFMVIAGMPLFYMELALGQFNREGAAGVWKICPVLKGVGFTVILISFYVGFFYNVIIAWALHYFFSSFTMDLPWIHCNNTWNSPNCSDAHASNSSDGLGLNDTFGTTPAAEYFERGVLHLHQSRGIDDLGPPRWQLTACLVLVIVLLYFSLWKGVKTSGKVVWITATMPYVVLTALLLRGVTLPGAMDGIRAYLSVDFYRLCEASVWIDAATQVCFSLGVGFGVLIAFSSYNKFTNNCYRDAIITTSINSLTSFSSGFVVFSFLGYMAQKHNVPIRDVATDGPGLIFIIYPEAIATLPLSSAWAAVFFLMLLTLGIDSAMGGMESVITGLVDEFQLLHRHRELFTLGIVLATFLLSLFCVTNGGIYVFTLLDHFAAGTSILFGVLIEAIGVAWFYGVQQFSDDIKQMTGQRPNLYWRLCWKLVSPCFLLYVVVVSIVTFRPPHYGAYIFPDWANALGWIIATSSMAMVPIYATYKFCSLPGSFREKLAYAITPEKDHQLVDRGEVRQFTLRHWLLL
structure (smiles),measurement,setting,value
COC(=O)C1C(c2ccc(Cl)cc2)CC2CCC1N2C/C=C/I (stereo unspecified),Injected dose/organ,[1],0.11%
same,Dose/g,[2],1.15%
same,Dose/g,[3],0.84%
same,Dose/g,[4],15.9%
same,Injected dose/organ,[5],23.9%
same,Injected dose/organ,[6],11.77%
same,Injected dose/organ,[7],1.19%
same,Injected dose/organ,[8],0.28%
same,Injected dose/organ,[9],0.46%
same,Ki,[10],3.2 nM
same,Injected dose/organ,[11],0.13%
same,Injected dose/organ,[12],0.12%
same,Injected dose/organ,[13],0.97%
same,Injected dose/organ,[14],5.24%
same,Injected dose/organ,[15],28.27%
same,Injected dose/organ,[16],3.72%
same,Dose/g,[17],0.077%
same,Injected dose/organ,[18],3.11%
same,Injected dose/organ,[19],1.97%
same,Dose/g,[20],0.05%
same,Dose/g,[21],1.15%
same,Dose/g,[22],0.038%
same,Dose/g,[23],0.08%
same,Injected dose/organ,[24],0.86%
same,Dose/g,[25],1.18%
same,Injected dose/organ,[26],0.31%
same,Injected dose/organ,[27],23.76%
same,Dose/g,[28],0.095%
same,Injected dose/organ,[29],0.58%
same,Injected dose/organ,[30],0.76%
same,Dose/g,[31],0.037%
